# Experimental data from patent US9416181B2, “Compositions for cell culture and methods of using the same” (AbbVie Inc., priority 2013, dated 2016).
# What was measured:
# Type in all cases: cell-based, Chinese Hamster
# [1] = test system: Cell Line 1 (CHO) expressing Antibody 1; test: Acidic species variants (WCX-10) of Antibody 1, Cell Line 1 3 L bioreactor fed-batch culture; conditions: for drop in absolute acidic species percentage points: 3 L bioreactor; for drop in absolute acidic species percentage points / relative total AR (ratio to Day 8 value of unsupplemented control): Day 15 harvest
# Experimental: (§1) A recombinant Chinese Hamster Ovary (CHO) cell line (Cell Line 1) expressing a humanized monoclonal antibody (Antibody 1) was evaluated in 2 different cultures vessels (shaker flasks and 3 L laboratory-scale bioreactors). The cell line was of CHO DUX-B11 origin based on a DHFR (dihydrofolate reductase) expression system and cultured in a chemically defined basal media, and fed periodically with a chemically-defined feed media (CDFM). The media utilized throughout all of the experiments were chemically-defined, and both animal-component free, and protein-free. Each of the respective media were supplemented as needed with selected bioflavonoids to evaluate for their potential impact on the resulting acidic species profile. In preparation of the cultures, the cell lines were serially expanded through separate seed train inoculums to generate enough cells for inoculation. Process conditions utilized during the cultures were slightly different depending on the culture scale, but similar within each scale to the respective non-bioflavonoid supplemented control conditions. All bioflavonoids utilized were purchased from Sigma-Aldrich (St. Louis, Mo.).
# Samples were analyzed using an HPLC system equipped with a ProPac WCX-10 analytical column (Thermo Scientific, Sunnyvale, Calif.). Approximately 100 μg of sample was loaded in 6% Buffer B (10 mM sodium phosphate, 500 mM NaCl, pH 5.5) and 94% Buffer A (10 mM sodium phosphate, pH 7.5). The column was run at a flow rate of 1.0 mL/min. The protein was eluted from the column by increasing the buffer B composition from 6% to 16% over 20 minutes. The protein peaks were measured using UV absorbance at 280 nm as the peaks eluted from the column. The column was regenerated using 100% buffer B followed be a re-equilibration period using initial condition before the injection of the next sample. Peaks eluting before the main peak were termed “acidic peaks” and peaks eluting after the main peak were called “basic peaks” (FIG. 2).
# In the next experiment, lab-scale bioreactors were used to (1) confirm the shaker experiment results and (2) to determine whether higher concentration range of EGCG is suitable for supplementing into cell culture. EGCG was added to the feed of the batch culture at the concentrations of 20 mg/L (mid), 50 mg/L (high) and 125 mg/L (high+) and 250 mg/L (high++) in this reactor experiment.
# Cell Line 1 was evaluated in larger-scale feed batch cultures with the feed media supplemented with various bioflavonoids. […] By contrast, cell growth performance was slightly different for the 0.1 g/L EGCG supplemented condition. […] However, the cell viability remained high at 0.1 g/L EGCG. All cultures were successfully harvested on Day 15 post-inoculation. The harvest titers measured from the evaluated cultures were similar.
# Cell Line 1 was also evaluated in laboratory-scale fedbatch cultures with the feed media supplemented with various bioflavonoids. […] Cell growth performance was slightly different however with the 0.1 g/L EGCG supplemented condition. […] All cultures were able to be successfully harvested on Day 15 post-inoculation.
# [2] = test system: Cell Line 2 (CHO) expressing Antibody 2; test: Cell culture performance, Cell Line 2 lab-scale bioreactor culture; conditions: 0.1 g/L in 100% feed and equivalent in 50% feed
# Experimental: Four different recombinant Chinese Hamster Ovary (CHO) cell lines expressing four different recombinant glycoproteins were evaluated in either shaker flask culture, or 3 L laboratory scale bioreactors. Cell Line 1 was genetically engineered to express Antibody 1, Cell Line 2 was genetically engineered to express Antibody 2, Cell Line 3 was genetically engineered to express dual variable domain immunoglobulin 1 (DVD1) and Cell Line 4 was genetically engineered to express dual variable domain immunoglobulin 2 (DVD2).
# (§2) Viable cell density (VCD) and cell viability values were measured through trypan blue exclusion via Cedex automated cell counters (Roche Applied Science, Indianapolis, Ind.), glucose and lactate values were measured with a ABL-805 (Radiometer Medical, Denmark) blood gas analyzer. Offline pH, dissolved oxygen (DO), and pCO2 (Dissolved carbon dioxide) measurements were performed as needed with an ABL-805 (Radiometer Medical, Denmark) blood gas analyzer. Osmolality was measured as needed on a Multi-Osmette 2430 osmometer (Precision Systems, Natick, Mass.).
# Protein A Affinity Chromatography-Antibody titers were measured from crude cell culture harvests on a Poros ATM (Life Technologies, Carlsbad, Calif.) affinity column using an HPLC system operating with a low pH, step elution gradient with detection at 280 nm. […]
# [3] = test system: Cell Line 1 (CHO) expressing Antibody 1; test: Cell culture performance (cell growth, viability, titer), Cell Line 1 shake flask fed-batch culture
# Experimental: as §1
# as §2, with “pCO2” for “pCO2 (Dissolved carbon dioxide)”
# Antibody titers were measured from crude cell culture harvests on a Poros A™ (Life Technologies, Carlsbad, Calif.) affinity column using an HPLC system operating with a low pH, step elution gradient with detection at 280 nm. Absolute concentrations were assigned with respect to reference standard calibration curves.
# In this Example, EGCG was added into the feed (cell culture medium) at the concentration range of 5 mg/L (low), 20 mg/L (mid) and 50 mg/L (high) in a shaker experiment to determine the impact of EGCG on product quality of a humanized monoclonal antibody (Antibody 1). Detailed cell culture conditions are as described in Table 1.
# However, it was not clear whether or not additional bioflavonoids would also have the same effects. To evaluate the impact of alternative bioflavonoids, fed-batch shake flask cultures were initiated with CDFM supplemented with 3 different concentrations of genistein, rutin, and naringin, in addition to EGCG. Cell growth, viability, as well as titers and acidic species variants were measured.
# To evaluate the impact of other bioflavonoids, fed-batch shake flask cultures were initiated with CDFM supplemented with multiple concentrations of rutin. Cell growth, viability, as well as titers and acidic species variants were measured and shown in FIGS. 14 and 15, respectively.
# [4] = 50, 125 and 250 mg/L in feed, bioreactor
# [5] = concentrations above 0.1 g/L in CDFM, shake flask
structure (smiles),measurement,setting,value
"O=C(O[C@@H]1Cc2c(O)cc(O)cc2O[C@@H]1c1cc(O)c(O)c(O)c1)c1cc(O)c(O)c(O)c1 [EGCG, epigallocatechin gallate]",drop in absolute acidic species percentage points,[1]; 0.05 g/L in CDFM,4%
same,relative total AR (ratio to Day 8 value of unsupplemented control),"[1]; 0.05 g/L in CDFM, bioreactor",1.10
same,drop in absolute acidic species percentage points,[1]; 0.1 g/L in CDFM,10%
same,relative total AR (ratio to Day 8 value of unsupplemented control),"[1]; 0.1 g/L in CDFM, bioreactor",0.69
same,"reduction of total acidic species content, absolute value",[1]; [4],at least 2%
same,"reduction of total acidic species content, relative value",[1]; [4],≥ 16%
same,"impact on cell culture performance (cell growth, viability, titer)",[2],negligible impact on cell culture performance
same,cell growth vs control,"[3]; 0.1 g/L in CDFM, shake flask",significantly lower than that of the control culture
same,cell viability vs control,"[3]; 0.1 g/L in CDFM, shake flask, cultures proceeded until Day 12",comparable to the control
same,"impact on cell culture performance (cell growth, viability, titer)","[3]; 5, 20 and 50 mg/L in feed, shaker",no impact on cell culture performance
same,cell growth,[3]; [5],adversely impacted
same,culture duration reached before viability became too low,[3]; [5],8 days
same,harvest titer,"[3]; higher levels of supplement, shake flask, Day 12 harvest",decreased titer
